pIC50: −log10 of the molar value.
Tests used:
[1] = biological target: T1, human MetAP2 enzyme (Homo sapiens, UniProt P50579); assay: MetAP2 enzyme assay, enzyme complexed with cobalt ions; conditions: MetAP2 Co pIC50, MetAP2 enzyme complexed with cobalt ions; Met-AMC substrate at Km
[2] = biological target: T1, human MetAP2 enzyme; assay: MetAP2 enzyme assay, enzyme complexed with manganese ions; conditions: MetAP2 Mn pIC50, MetAP2 enzyme complexed with manganese ions; Met-AMC substrate at Km

T1 sequence (P50579 whole entry): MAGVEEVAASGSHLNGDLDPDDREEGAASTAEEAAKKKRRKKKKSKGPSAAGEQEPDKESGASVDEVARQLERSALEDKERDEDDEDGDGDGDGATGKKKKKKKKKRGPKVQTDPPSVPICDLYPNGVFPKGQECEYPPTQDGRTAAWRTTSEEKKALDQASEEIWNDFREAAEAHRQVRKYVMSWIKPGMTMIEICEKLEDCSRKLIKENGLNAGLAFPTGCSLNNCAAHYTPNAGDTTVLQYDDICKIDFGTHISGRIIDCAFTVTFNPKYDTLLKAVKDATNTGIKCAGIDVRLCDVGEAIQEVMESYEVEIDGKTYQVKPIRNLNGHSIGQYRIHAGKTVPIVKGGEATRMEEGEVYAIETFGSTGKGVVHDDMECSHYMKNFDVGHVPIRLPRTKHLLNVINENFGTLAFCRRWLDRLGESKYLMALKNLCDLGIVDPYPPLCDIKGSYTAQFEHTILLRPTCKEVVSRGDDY

| pIC50 [1] | pIC50 [2] | SMILES |
| --- | --- | --- |
| 6.30 | 8.20 | CCNC(=O)Cn1c(=O)c(-c2cc(C(F)(F)F)cc3[nH]ncc23)cn(C)c1=O [Example 302, N-ethyl-2-(3-methyl-2,6-dioxo-5-(6-(trifluoromethyl)-1H-indazol-4-yl)-2,3-dihydropyrimidin-1(6H)-yl)acetamide] |
| 6.50 | 8.00 | CS(=O)(=O)c1cncc(-c2cc(C(F)(F)F)cc3[nH]ncc23)c1 [Example 105, 4-(5-(methylsulfonyl)pyridin-3-yl)-6-(trifluoromethyl)-1H-indazole] |
| 7.50 | 8.10 | Cc1nc(NS(=O)(=O)c2cnn(C)c2)ccc1-c1cc(C(F)(F)F)cc2[nH]ncc12 [Example 259, 1-methyl-N-(6-methyl-5-(6-(trifluoromethyl)-1H-indazol-4-yl)pyridin-2-yl)-1H-pyrazole-4-sulfonamide] |
| 7.30 | 8.40 | COc1ncc(-c2cc(C(F)(F)F)cc3[nH]ncc23)cc1C(=O)NCCO [Example 285, N-(2-hydroxyethyl)-2-methoxy-5-(6-(trifluoromethyl)-1H-indazol-4-yl)nicotinamide] |
| 7.90 | 8.60 | O=c1[nH]c2ccc(-c3cc(C(F)(F)F)cc4[nH]ncc34)cc2[nH]1 [Example 237, 5-(6-(trifluoromethyl)-1H-indazol-4-yl)-1H-benzo[d]imidazol-2(3H)-one] |
| 6.60 | 8.10 | O=C(NCCO)c1cncc(-c2cc(C(F)(F)F)cc3[nH]ncc23)c1 [Example 290, N-(2-hydroxyethyl)-5-(6-(trifluoromethyl)-1H-indazol-4-yl)nicotinamide] |
| 7.00 | 8.30 | NS(=O)(=O)c1ccc(-c2cc(C(F)(F)F)cc3[nH]ncc23)cn1 [Example 345, 5-(6-(trifluoromethyl)-1H-indazol-4-yl)pyridine-2-sulfonamide] |
| 7.40 | 7.80 | COc1ccc(C(=O)NCCO)cc1-c1cc(C(F)(F)F)cc2[nH]ncc12 [Example 268, N-(2-hydroxyethyl)-4-methoxy-3-(6-(trifluoromethyl)-1H-indazol-4-yl)benzamide] |
| 6.20 | 8.00 | C[C@@H](O)CNC(=O)c1c[nH]c(=O)c(-c2cc(C(F)(F)F)cc3[nH]ncc23)c1 [Example 336, (R)—N-(2-hydroxypropyl)-6-oxo-5-(6-(trifluoromethyl)-1H-indazol-4-yl)-1,6-dihydropyridine-3-carboxamide] |
| 7.10 | 8.20 | Cn1ncc(-c2cc(C(F)(F)F)cc3[nH]ncc23)c1CO [Example 250, (1-methyl-4-(6-(trifluoromethyl)-1H-indazol-4-yl)-1H-pyrazol-5-yl)methanol] |
| 5.60 | 7.00 | Cn1c(-c2cc(C(F)(F)F)cc3[nH]ncc23)cc2ccccc21 [Example 51, 4-(1-methyl-1H-indol-2-yl)-6-(trifluoromethyl)-1H-indazole] |
| 7.10 | 8.20 | Cn1cc(-c2cc(C(F)(F)F)cc3[nH]ncc23)c(CO)n1 [Example 220, (1-methyl-4-(6-(trifluoromethyl)-1H-indazol-4-yl)-1H-pyrazol-3-yl)methanol] |
| 7.50 | 8.30 | COc1nc(C(=O)NCCO)ccc1-c1cc(C(F)(F)F)cc2[nH]ncc12 [Example 394, N-(2-hydroxyethyl)-6-methoxy-5-(6-(trifluoromethyl)-1H-indazol-4-yl)picolinamide] |
| 7.80 | 8.30 | CNC(=O)c1ccc(OC)c(-c2cc(C(F)(F)F)cc3[nH]ncc23)c1 [Example 181, 4-methoxy-N-methyl-3-(6-(trifluoromethyl)-1H-indazol-4-yl)benzamide] |
| 7.20 | 8.50 | FC(F)(F)c1cc(-c2cnc(N3CCOCC3)cn2)c2cn[nH]c2c1 [Example 94, 4-(5-(6-(trifluoromethyl)-1H-indazol-4-yl)pyrazin-2-yl)morpholine] |
| 6.80 | 8.00 | FC(F)(F)c1cc(-c2cnc(-n3ccnc3)nc2)c2cn[nH]c2c1 [Example 217, 4-(2-(1H-imidazol-1-yl)pyrimidin-5-yl)-6-(trifluoromethyl)-1H-indazole] |
| 6.40 | 7.40 | NC(=O)c1ccc2ncc(-c3cc(C(F)(F)F)cc4[nH]ncc34)n2n1 [Example 276, 3-(6-(trifluoromethyl)-1H-indazol-4-yl)imidazo[1,2-b]pyridazine-6-carboxamide] |
| 6.30 | 8.00 | C[C@H](O)CNC(=O)c1cc(-c2cc(C(F)(F)F)cc3[nH]ncc23)c(=O)n(C)c1 [Example 359, (S)—N-(2-hydroxypropyl)-1-methyl-6-oxo-5-(6-(trifluoromethyl)-1H-indazol-4-yl)-1,6-dihydropyridine-3-carboxamide] |
| 7.60 | 8.10 | O=C(NC1CC1)c1ccc(-c2cc(C(F)(F)F)cc3[nH]ncc23)cc1 [Example 35, N-cyclopropyl-4-(6-(trifluoromethyl)-1H-indazol-4-yl)benzamide] |
| 7.20 | 8.20 | CS(=O)(=O)c1ccc(-c2cc(C(F)(F)F)cc3[nH]ncc23)cc1 [Example 347, 4-(4-(methylsulfonyl)phenyl)-6-(trifluoromethyl)-1H-indazole] |

| pIC50 [1] | pIC50 [2] | SMILES |
| --- | --- | --- |
| 6.80 | 8.00 | Nc1ncc(F)cc1-c1cc(C(F)(F)F)cc2[nH]ncc12 [Example 194, 5-fluoro-3-(6-(trifluoromethyl)-1H-indazol-4-yl)pyridin-2-amine] |
| 7.20 | 8.20 | COc1cncc(-c2cc(C(F)(F)F)cc3[nH]ncc23)c1 [Example 42, 4-(5-methoxypyridin-3-yl)-6-(trifluoromethyl)-1H-indazole] |
| 7.60 | 8.20 | CCn1nc(C)c(-c2cc(C(F)(F)F)cc3[nH]ncc23)c1C [Example 168, 4-(1-ethyl-3,5-dimethyl-1H-pyrazol-4-yl)-6-(trifluoromethyl)-1H-indazole] |
| 5.80 | 6.80 | N#Cc1cnc2c(-c3cc(C(F)(F)F)cc4[nH]ncc34)cnn2c1N [Example 159, 7-amino-3-(6-(trifluoromethyl)-1H-indazol-4-yl)pyrazolo[1,5-a]pyrimidine-6-carbonitrile] |
| 7.40 | 8.10 | FC(F)(F)c1cc(-c2cnc(N3CCCC3)nc2)c2cn[nH]c2c1 [Example 116, 4-(2-(pyrrolidin-1-yl)pyrimidin-5-yl)-6-(trifluoromethyl)-1H-indazole] |
| 7.20 | 7.90 | Cc1nn(CCC#N)c(C)c1-c1cc(C(F)(F)F)cc2[nH]ncc12 [Example 174, 3-(3,5-dimethyl-4-(6-(trifluoromethyl)-1H-indazol-4-yl)-1H-pyrazol-1-yl)propanenitrile] |
| 7.30 | 7.80 | Cc1nn(CC(=O)N2CC(O)C2)c(C)c1-c1cc(C(F)(F)F)cc2[nH]ncc12 [Example 366, 2-(3,5-dimethyl-4-(6-(trifluoromethyl)-1H-indazol-4-yl)-1H-pyrazol-1-yl)-1-(3-hydroxyazetidin-1-yl)ethanone] |
| 6.70 | 8.00 | N#Cc1cnc(N)c(-c2cc(C(F)(F)F)cc3[nH]ncc23)c1 [Example 212, 6-amino-5-(6-(trifluoromethyl)-1H-indazol-4-yl)nicotinonitrile] |
| 7.80 | 8.20 | COc1cc(C(N)=O)ccc1-c1cc(C(F)(F)F)cc2[nH]ncc12 [Example 306, 3-methoxy-4-(6-(trifluoromethyl)-1H-indazol-4-yl)benzamide] |
| 7.10 | 8.40 | Cc1cc(=O)n(CC#N)cc1-c1cc(C(F)(F)F)cc2[nH]ncc12 [Example 408, 2-(4-methyl-2-oxo-5-(6-(trifluoromethyl)-1H-indazol-4-yl)pyridin-1(2H)-yl)acetonitrile] |
| 7.90 | 8.40 | O=C1Cc2cc(-c3cc(C(F)(F)F)cc4[nH]ncc34)ccc2N1 [Example 235, 5-(6-(trifluoromethyl)-1H-indazol-4-yl)indolin-2-one] |
| 7.10 | 8.00 | Cc1c(-c2cc(C(F)(F)F)cc3[nH]ncc23)ccc(=O)n1CC#N [Example 405, 2-(6-methyl-2-oxo-5-(6-(trifluoromethyl)-1H-indazol-4-yl)pyridin-1(2H)-yl)acetonitrile] |
| 7.50 | 8.00 | Cc1ccc(C(=O)N2CC(O)C2)cc1-c1cc(C(F)(F)F)cc2[nH]ncc12 [Example 369, (3-hydroxyazetidin-1-yl)(4-methyl-3-(6-(trifluoromethyl)-1H-indazol-4-yl)phenyl)methanone] |
| 6.70 | 8.20 | Cc1c(C(=O)N2CCN(C)CC2)cc(-c2cc(C(F)(F)F)cc3[nH]ncc23)c(=O)n1C [Example 401, 1,6-dimethyl-5-(4-methylpiperazine-1-carbonyl)-3-(6-(trifluoromethyl)-1H-indazol-4-yl)pyridin-2(1H)-one] |
| 6.10 | 7.80 | Cc1[nH]c(=O)[nH]c(=O)c1-c1cc(C(F)(F)F)cc2[nH]ncc12 [Example 204, 6-methyl-5-(6-(trifluoromethyl)-1H-indazol-4-yl)pyrimidine-2,4(1H,3H)-dione] |
| 7.40 | 7.70 | Cc1n[nH]c(C)c1-c1cc(C(F)(F)F)cc2[nH]ncc12 [Example 83, 4-(3,5-dimethyl-1H-pyrazol-4-yl)-6-(trifluoromethyl)-1H-indazole] |
| 7.40 | 8.50 | OCc1ccccc1-c1cc(C(F)(F)F)cc2[nH]ncc12 [Example 12, (2-(6-(trifluoromethyl)-1H-indazol-4-yl)phenyl)methanol] |
| 7.30 | 8.40 | Nc1ncc(-c2cc(C(F)(F)F)cc3[nH]ncc23)cn1 [Example 9, 5-(6-(trifluoromethyl)-1H-indazol-4-yl)pyrimidin-2-amine] |
| 7.20 | 8.50 | FC(F)(F)c1cc(-c2cccnc2)c2cn[nH]c2c1 [Example 19, 4-(pyridin-3-yl)-6-(trifluoromethyl)-1H-indazole] |

Reference: US9434743B2, “Indazole derivatives” (TAKEDA PHARMACEUTICAL COMPANY LIMITED, priority 2012, dated 2016)
